{"source": "patent US7745465B2", "about": "“Method of enhancing cellular production of molecular chaperone, hydroxylamine derivatives useful for enhancing the chaperone production and the preparation thereof” (CytRx Corporation, priority 1995, dated 2010)", "key": {"hsp72 gene": {"system": "hsp72 gene", "experiment": "Northern blot of hsp72 mRNA in rat heart ventricles", "assay_type": "in vivo", "procedure": "Experiments were carried out in SPRD male rats. Animals were anaesthetized with Nembutal in a dose of 60 mg/kg/i.p. Body temperature of the rats were maintained with an infra lamp placed over the abdomen and the rectal temperature was measured. After a 25-40 minute period the temperature of the rats increased to 42.0-42.2° C. and this temperature was maintained for 15 minutes. After a recovery period (2 hrs), tissue samples were collected from the left and right ventricles.\nExperiments were carried out in SPRD male rats. The animals were anaesthetized with Nembutal in a dose of 60 mg/kg/i.p. After opening the chest and pericardium, the LAD coronary artery was occluded for 5 minutes and then the incidence and duration of ventricular tachycardia and fibrillation in the reperfusion period (10 minutes) were investigated. Tissue samples were collected from the left and right ventricles.\nTotal RNA was extracted using RN Agents kit (Promega) according to the manufacturer's instructions (Protocols and Applications Guide, 2nd edition, 1991, Promega Corporation). […]\nPrehybridizations were carried out at 65° C. in H-buffer (0.25M Na2HPO4, pH 7.2, 7% SDS) for 15 minutes. […] The membrane was washed with 20 mM Na2HPO4, pH 7.2, 5% SDS (65 C; 2×15 min.) and evaluated by autoradiography. […]"}, "Hsp72": {"system": "Hsp72", "experiment": "Western blot of hsp72 in heat shocked H9c2 cells", "assay_type": "cell-based, rat", "procedure": "Experiments set forth in this section were conducted to determine whether N-[2-hydroxy-3-(1-piperidinyl)propoxy]-3-pyridinecarboximidoyl chloride maleate acts to increase the expression of molecular chaperon by a cell. The accumulation of different heat shock proteins subsequent to a period of exposure to heat shock alone, and to heat shock in combination with N-[2-hydroxy-3-(1-piperidinyl)propoxy]-3-pyridinecarboximidoyl chloride maleate administration, was examined by adding 10^−5 M of N-[2-hydroxy-3-(1-piperidinyl)propoxy]-3-pyridinecarboximidoyl chloride maleate before, during, or immediately after hyperthermic treatment of heart myogenic cells (H9c2 cells).\nThe embryonic rat heart-derived cell line H9c2 was obtained from European Collection of Animal cell Cultures (ECACC) (88092904). The cells were maintained at 37° C. in Dulbecco's modified Eagle's medium (DMEM) supplemented with 10% fetal calf serum (GIBCO) in JOUAN C02 thermostat (5% CO2).\nHeat shock was performed at 43° C. in CO2 thermostat for the given time intervals (20, 40, 60, 90 and 120 min.). Cells were then taken back to 37° C. for 6 hours and proteins were extracted for SDS-PAGE. […]\nProtein concentration was determined from 5:1 samples by the Bradford assay (M. M. Braford, Anal. Biochem., 72: 248-254 (1976)) in three parallel. […]"}}, "data": [{"molecule": "O=C(O)/C=C\\C(=O)O.OC(CON=C(Cl)c1cccnc1)CN1CCCCC1", "note": "(stereo not shown) [N-[2-hydroxy-3-(1-piperidinyl)-propoxy]3-pyridinecarboximidoyl chloride maleate]", "values": [{"measurement": "expression of hsp72 gene in heart muscle preparations", "setting": "hsp72 gene; 100 mg/kg p.o., ischemia", "result": "highly increased expression of hsp72 gene"}, {"measurement": "activation of the hsp72 gene", "setting": "hsp72 gene; in the absence of stress, compound alone", "result": "unable to activate the hsp72 gene"}, {"measurement": "effect on hsp72 level", "setting": "Hsp72; added during the recovery phase", "result": "also effective though to a lesser degree"}, {"measurement": "hsp72 level increased when comparing to 37° C. samples", "setting": "Hsp72; administration before heat stress, 60 min. heat stress", "result": "about 50 times"}]}]}
